Non-standard residues stand in square brackets, D forms with d. Residues, ends and D or L forms follow the SMILES beside them. *: point of attachment. Phe(F5) = N[C@@H](Cc1c(F)c(F)c(F)c(F)c1F)C(=O)O; Desaminotyrosyl = O=C(CCc1ccc(O)cc1)*; NMeY = CN[C@@H](Cc1ccc(O)cc1)C(=O)O; Agmatine = N=C(N)NCCCCN*; Nle = CCCC[C@H](N)C(=O)O; Orn = NCCC[C@H](N)C(=O)O; Abu = CC[C@H](N)C(=O)O; GABA = NCCCC(=O)O
Each compound was assayed on myocardial infarction (Fisher-344 rats) (assay: Hemodynamic analysis (pressure-volume loops), body and heart weight after MI, compared to JI-38 (Example 15, Table 16)). Settings: rat MI model, s.c. twice daily; pressure-volume loops; expressed in comparison to JI-38.
Type: in vivo, rat
Parameters: key to ESP (End-Systolic Pressure) / EDP (End-Diastolic Pressure) / ESV (End-Systolic Volume) / PRSW (Preload Recruitable Stroke Work) / Ees (End-systolic Elastance) / dP/dt max (peak rate of the pressure rise) / dP/dt max_EDV / dP/dt min / TAU (relaxation time constant calculated by Weiss method) / SV (Stroke Volume) / CO (Cardiac Output) / SW (Stroke Work) / EF / Ea/Ees / Ea (arterial Elastance): ↓: downward arrow denotes lower than JI-38; ↑: upward arrow denotes greater than JI-38; =denotes same as JI-38; ⬇⬇: double arrow denotes greater effect; ⬆⬆: double arrow denotes greater effect
Description: Rats were anesthetized by intramuscular injection of a mixture of ketamine (100 mg/kg), xylazine (20 mg/kg) and acepromazine (10 mg/kg). A 2-F micromanometer tipped catheter (SPR-838, Millar Instruments, Houston, Tex.) was inserted into the right carotid artery and advanced retrograde into the left ventricle. Measurements were calibrated by injecting a hypertonic saline (15%) bolus to determine extra-ventricular conductance; relative volume units were converted to actual volume using the cuvette calibration method. All analyses were performed using PVAN 3.0 software (Millar Instruments, Houston, Tex.).
Myocardial infarction (MI) was induced by permanent ligation of the left coronary artery in female 6-month-old Fisher-344 rats. Following experimental myocardial infarction (MI), rats were randomly assigned to receive either placebo, JI-38, or one of the following new analogs of GHRH: MR-30 l(P-21301), MR-303(P-21303), MR-356(P-20356), MR-502(25502), MR-350(P-20350), MR-36 l(P-20361), MR-367(P-20367), MR-403(P-27403), MR-404(P-27404), and MR-409(P-27409) (10 rats per each group). The GHRH peptide agonists were adminsistered starting 2 hours post-surgery, 1 week, 2 week, and 4 week intervals. All treatment was given subcutaneously twice daily. Cardiac performance was assessed by serial echocardiography and hemodynamic analysis derived from pressure-volume loops as described before.
The hemodynamic studies are shown in FIGS. 16-33 and the results are summarized in Table 16 (results were expressed in comparison to JI-38; downward arrow denotes lower than JI-38; upward arrow denotes greater than JI-38; =denotes same as JI-38; and double arrow denotes greater effect).
For CCCC[C@H](NC(=O)[C@@H](NC(=O)[C@H](CC(=O)O)NC(=O)[C@H](CCC(N)=O)NC(=O)[C@H](CC(C)C)NC(=O)[C@H](CC(C)C)NC(=O)[C@H](CCCN)NC(=O)[C@H](CCCNC(=N)N)NC(=O)[C@H](C)NC(=O)[C@H](CO)NC(=O)[C@H](CC(C)C)NC(=O)[C@H](CCC(N)=O)NC(=O)[C@H](CC)NC(=O)[C@H](CC(C)C)NC(=O)[C@@H](NC(=O)[C@H](CCCN)NC(=O)[C@H](CCCNC(=N)N)NC(=O)[C@H](Cc1ccc(O)cc1)NC(=O)[C@H](CO)NC(=O)[C@H](CCC(N)=O)NC(=O)[C@@H](NC(=O)[C@H](Cc1c(F)c(F)c(F)c(F)c1F)NC(=O)[C@@H](NC(=O)[C@H](C)NC(=O)[C@H](CC(=O)O)NC(=O)[C@@H](C)NC(=O)[C@H](Cc1ccc(O)cc1)NC)[C@@H](C)CC)[C@@H](C)O)C(C)C)[C@@H](C)CC)C(=O)N[C@@H](CC(=O)O)C(=O)N[C@@H](CCCNC(=N)N)C(=O)NC [Peptide P-27404, [N—Me-Tyr^1, D-Ala^2, Fpa5^6, Orn^12, Abu^15, Orn^21, Nle^27, Asp^28]hGHRH (1-29)NH—CH3] (H-[NMeY][dA]DAI[Phe(F5)]TQSYR[Orn]VL[Abu]QLSAR[Orn]LLQDI[Nle]DR-NHMe), the “CO (Cardiac Output)” value was “↑”, the “EDP (End-Diastolic Pressure)” value was “↑” and the EF was “↑”. For the same compound, the “ESP (End-Systolic Pressure)” value was “=”, the “ESV (End-Systolic Volume)” value was “=” and the “Ea (arterial Elastance)” value was “=”. The Ea/Ees was “=”, the “Ees (End-systolic Elastance)” value was “=” and the “PRSW (Preload Recruitable Stroke Work)” value was “=”. For the same compound, the “SV (Stroke Volume)” value was “↑”, the “SW (Stroke Work)” value was “=” and the “TAU (relaxation time constant calculated by Weiss method)” value was “=”. For the same compound, the “dP/dt max (peak rate of the pressure rise)” value was “=”, the “dP/dt max_EDV” value was “=” and the dP/dt min was “=”. In the case of CCCC[C@H](NC(=O)[C@@H](NC(=O)[C@H](CC(=O)O)NC(=O)[C@H](CCC(N)=O)NC(=O)[C@H](CC(C)C)NC(=O)[C@H](CC(C)C)NC(=O)[C@H](CCCN)NC(=O)[C@H](CCCNC(=N)N)NC(=O)[C@H](C)NC(=O)[C@H](CO)NC(=O)[C@H](CC(C)C)NC(=O)[C@H](CCC(N)=O)NC(=O)[C@H](CC)NC(=O)[C@H](CC(C)C)NC(=O)[C@@H](NC(=O)[C@H](CCCN)NC(=O)[C@H](CCCNC(=N)N)NC(=O)[C@H](Cc1ccc(O)cc1)NC(=O)[C@H](CO)NC(=O)[C@H](CCC(N)=O)NC(=O)[C@@H](NC(=O)[C@H](Cc1ccccc1)NC(=O)[C@@H](NC(=O)[C@H](C)NC(=O)[C@H](CC(=O)O)NC(=O)[C@@H](C)NC(=O)[C@H](Cc1ccc(O)cc1)NC)[C@@H](C)CC)[C@@H](C)O)C(C)C)[C@@H](C)CC)C(=O)N[C@@H](CC(=O)O)C(=O)N[C@@H](CCCNC(=N)N)C(=O)NC [Peptide P-27403, [N—Me-Tyr^1, D-Ala^2, Gln^8, Orn^12, Abu^15, Orn^21, Nle^27, Asp^28]hGHRH(1-29)NH—CH3] (H-[NMeY][dA]DAIFTQSYR[Orn]VL[Abu]QLSAR[Orn]LLQDI[Nle]DR-NHMe), the “CO (Cardiac Output)” value is reported as “↑”, the “EDP (End-Diastolic Pressure)” value is reported as “↑” and the EF is reported as “=”. The “ESP (End-Systolic Pressure)” value was “=”, the “ESV (End-Systolic Volume)” value was “↑” and the “Ea (arterial Elastance)” value was “=”. For the same compound, the Ea/Ees was “↓”, the “Ees (End-systolic Elastance)” value was “=” and the “PRSW (Preload Recruitable Stroke Work)” value was “=”. The “SV (Stroke Volume)” value was “=”, the “SW (Stroke Work)” value was “=” and the “TAU (relaxation time constant calculated by Weiss method)” value was “=”. The “dP/dt max (peak rate of the pressure rise)” value was “=”, the “dP/dt max_EDV” value was “=” and the dP/dt min was “=”. In the case of CCCC[C@H](NC(=O)[C@@H](NC(=O)[C@H](CC(=O)O)NC(=O)[C@H](CCC(N)=O)NC(=O)[C@H](CC(C)C)NC(=O)[C@H](CC(C)C)NC(=O)[C@H](CCCN)NC(=O)[C@H](CCCNC(=N)N)NC(=O)[C@H](C)NC(=O)[C@H](CO)NC(=O)[C@H](CC(C)C)NC(=O)[C@H](CCC(N)=O)NC(=O)[C@H](CC)NC(=O)[C@H](CC(C)C)NC(=O)[C@@H](NC(=O)[C@H](CCCN)NC(=O)[C@H](CCCNC(=N)N)NC(=O)[C@H](Cc1ccc(O)cc1)NC(=O)[C@H](CO)NC(=O)[C@H](CC(N)=O)NC(=O)[C@@H](NC(=O)[C@H](Cc1ccccc1)NC(=O)[C@@H](NC(=O)[C@H](C)NC(=O)[C@H](CC(=O)O)NC(=O)[C@@H](C)NC(=O)[C@H](Cc1ccc(O)cc1)NC)[C@@H](C)CC)[C@@H](C)O)C(C)C)[C@@H](C)CC)C(=O)N[C@@H](CC(=O)O)C(=O)NCCCCNC(=N)N [Peptide P-20367, [N—Me-Tyr^1, D-Ala^2, Orn^12, Abu^15, Orn^21, Nle^27, Asp^28, Agm^29]hGHRH(1-29)NH2] (H-[NMeY][dA]DAIFTNSYR[Orn]VL[Abu]QLSAR[Orn]LLQDI[Nle]D-Agmatine), the “CO (Cardiac Output)” value is reported as “↑”, the “EDP (End-Diastolic Pressure)” value is reported as “↑” and the EF is reported as “=”. The “ESP (End-Systolic Pressure)” value was “↑”, the “ESV (End-Systolic Volume)” value was “↑” and the “Ea (arterial Elastance)” value was “=”. The Ea/Ees was “↓”, the “Ees (End-systolic Elastance)” value was “=” and the “PRSW (Preload Recruitable Stroke Work)” value was “=”. The “SV (Stroke Volume)” value was “=”, the “SW (Stroke Work)” value was “↓” and the “TAU (relaxation time constant calculated by Weiss method)” value was “=”. The “dP/dt max (peak rate of the pressure rise)” value was “=”, the “dP/dt max_EDV” value was “=” and the dP/dt min was “=”. In the case of CCCC[C@H](NC(=O)[C@@H](NC(=O)[C@H](CC(=O)O)NC(=O)[C@H](CCC(N)=O)NC(=O)[C@H](CC(C)C)NC(=O)[C@H](CC(C)C)NC(=O)[C@H](CCCN)NC(=O)[C@H](CCCNC(=N)N)NC(=O)[C@H](C)NC(=O)[C@H](CO)NC(=O)[C@H](CC(C)C)NC(=O)[C@H](CCC(N)=O)NC(=O)[C@H](CC)NC(=O)[C@H](CC(C)C)NC(=O)[C@@H](NC(=O)[C@H](CCCN)NC(=O)[C@H](CCCNC(=N)N)NC(=O)[C@H](Cc1ccc(O)cc1)NC(=O)[C@H](CO)NC(=O)[C@H](CC(N)=O)NC(=O)[C@@H](NC(=O)[C@H](Cc1c(F)c(F)c(F)c(F)c1F)NC(=O)[C@@H](NC(=O)[C@H](C)NC(=O)[C@H](CC(=O)O)NC(=O)[C@@H](C)NC(=O)CCc1ccc(O)cc1)[C@@H](C)CC)[C@@H](C)O)C(C)C)[C@@H](C)CC)C(=O)N[C@@H](CO)C(=O)N[C@@H](CCCNC(=N)N)C(=O)NCCCC(N)=O [Peptide P-25502, [Dat^1, D-Ala^2, Fpa5^6, Orn^12, Abu^15, Orn^21, Nle^27, Gab^30]hGHRH(1-30)NH2] (Desaminotyrosyl-[dA]DAI[Phe(F5)]TNSYR[Orn]VL[Abu]QLSAR[Orn]LLQDI[Nle]SR[GABA]-NH2), the “CO (Cardiac Output)” value is reported as “↓”, the “EDP (End-Diastolic Pressure)” value is reported as “=” and the EF is reported as “↓”. For the same compound, the “ESP (End-Systolic Pressure)” value was “=”, the “ESV (End-Systolic Volume)” value was “=” and the “Ea (arterial Elastance)” value was “↑”. For the same compound, the Ea/Ees was “=”, the “Ees (End-systolic Elastance)” value was “↑” and the “PRSW (Preload Recruitable Stroke Work)” value was “=”. For the same compound, the “SV (Stroke Volume)” value was “↓”, the “SW (Stroke Work)” value was “=” and the “TAU (relaxation time constant calculated by Weiss method)” value was “↓”. The “dP/dt max (peak rate of the pressure rise)” value was “=”, the “dP/dt max_EDV” value was “=” and the dP/dt min was “=”.

— US10555987B2, “GHRH agonists for the treatment of ischemic disorders” (UNIVERSITY OF MIAMI, priority 2012, dated 2020)
